Measured values from patent US10478455B2, “Therapeutic use of tetrathiomolybdate” (UCL BUSINESS LTD, priority 2010, dated 2019).

How the values were obtained:
[1] = Study 4: plasma sulphide after i.v. TTM (monobromobimane-based HPLC assay); format: in vivo, rat
Procedure: This study investigated sulphide release from tetrathiomolybdate (TTM). Male Wistar rats were anaesthetized allowing insertion of carotid arterial and jugular venous lines for blood sampling and drug administration, respectively. Plasma sulphide levels (measured using a monobromobimane-based HPLC assay) were determined up to 2 h following bolus i.v. administration of TTM (10 mg/kg) or for 3 h after the onset of two continuous i.v. infusions (10 and 20 mg/kg/h).

Male Wistar rats [2] = experiment: Study 2: core temperature in anaesthetised rats; format: in vivo, rat; conditions: anaesthetised rats, 0.2, 2 and 20 mg/kg every 20 minutes; measured 20 minutes after the last dose, vs saline
Procedure: Animals were anaesthetised and instrumented as above. Under continuous anaesthesia, TTM was administered every 20 minutes at increasing doses (0.2, 2 and 20 mg/kg). Core temperature was measured at the beginning of the experiment (i.e. before TTM administration) and 20 minutes after the last dose of the drug (20 mg/kg).

Male Wistar rats [3] = experiment: Study 1: oxygen consumption and carbon dioxide production in awake rats in a metabolic cart; format: in vivo, rat
Procedure: Male Wistar rats (300 g) were anaesthetised and instrumented with a venous line for drug administration. The animals were placed into a metabolic cart and allowed to recover from anaesthesia. After 2 h, TTM was administered i.v. hourly at increasing doses (2, 5, 10 and 20 mg/kg). Oxygen consumption and carbon dioxide production were continually monitored for the duration of the experiment. TTM induced a clear drop in oxygen consumption and carbon dioxide production at 10 and 20 mg/kg (FIG. 1), compared to time-matched control animals (sham) receiving only vehicle (saline).

endotoxaemic animals = experiment: Study 3: core temperature during endotoxaemia (lipopolysaccharide, Klebsiella pneumoniae); format: in vivo, rat
Procedure: FIG. 3: Protocol for endotoxaemia experiments. ETX is endotoxin, TTM is tetrathiomolybdate. Fluids: a 50:50 mix of colloid and crystalloid plus glucose. TTM was diluted in normal saline and administered as a 4 ml/kg bolus. Animals received a venous line for drug administration under anaesthesia. Endotoxaemia (which typically causes an increase in core temperature) was induced by intravenous administration of lipopolysaccharide (20 mg/kg, Klebsiella pneumoniae). TTM or vehicle was administered 1 h following the onset of endotoxaemia (FIG. 3; protocol).

Soleus muscle fibres = experiment: Study 5: ex-vivo inhibition of oxygen consumption in permeabilized soleus muscle fibres (Clark electrode); conditions: TTM 0.5-2 mM, saponin-permeabilized rat soleus muscle fibres
Procedure: This study investivated ex-vivo Inhibition of oxygen consumption by TTM. Soleus muscle was removed from the hind limbs of male Wistar rats and preserved on ice in a physiological buffer solution. Muscle fibres were isolated with forceps and permeabilized with saponin. Muscle fibres were placed in a closed chamber containing a physiological solution and substrates for oxidative metabolism. Oxygen concentrations within the chamber were measured using a Clark electrode. The fall in oxygen concentration over time (gradient) reflects oxygen consumption by the tissue. Either vehicle or TTM (0.5-2 mM) was added to the chamber and oxygen consumption assessed. […] This further highlights the ability of TTM to decrease metabolism.

[4] = test system: rat model of haemorrhage/reperfusion injury; experiment: Study 6: rat model of haemorrhage/reperfusion injury; format: in vivo
Procedure: This study investigated effects of TTM in a rat model of haemorrhage/reperfusion injury. Male Wistar rats were anaesthetized for insertion of carotid arterial and jugular venous lines for blood removal and fluid/drug administration, respectively. After 30 min stabilization, 50% estimated circulating blood volume was removed from the arterial line over 15 min. Animals were monitored for a further 90 min prior to resuscitation, then randomized to receive either TTM or placebo (normal saline). TTM (10 mg/kg) was administered as an i.v. bolus (2 ml/kg). This was immediately followed by administration of shed blood over 15 min. In TTM-treated animals, the shed blood was supplemented with a further 2.5 mg/kg TTM; total dose 12.5 mg/kg. Placebo treated animals received equivalent volumes of fluid and administration of shed blood. Following resuscitation, both groups of animals received 10 ml/kg/h n-saline and were monitored up to 6 h post-resuscitation. […] Thus, TTM administration improves outcome following severe haemorrhage/reperfusion injury. This beneficial effect is potentially mediated by modulation of metabolism.

Wilson's disease = conditions: cited from earlier work
[5] = awake rats, TTM i.v. hourly at increasing doses, effect at 10 and 20 mg/kg vs sham (saline)

Compound | plasma sulphide half-life ([1]; bolus i.v. 10 mg/kg) [min] | plasma sulphide levels ([1]; bolus i.v. 10 mg/kg, up to 2 h) | time to steady state of plasma sulphide ([1]; continuous i.v. infusion 10 and 20 mg/kg/h) [h] | plasma sulphide levels ([1]; continuous i.v. infusion 10 and 20 mg/kg/h, 3 h) | core temperature (Male Wistar rats [2]) | conscious level (Male Wistar rats [3]; awake rats during intravenous infusion of TTM) | carbon dioxide production (Male Wistar rats [3]; [5]) | oxygen consumption (Male Wistar rats [3]; [5]) | core temperature at highest dose (endotoxaemic animals; TTM 20 mg/kg, 1 h after onset of endotoxaemia) | hyperthermic response to endotoxin (core temperature) (endotoxaemic animals; TTM given 1 h after onset of endotoxaemia (LPS 20 mg/kg i.v.)) | oxygen consumption ex vivo (Soleus muscle fibres) | 6 h survival post-resuscitation ([4]; TTM 10 mg/kg i.v. bolus plus 2.5 mg/kg in shed blood (total 12.5 mg/kg) vs placebo) | core temperature ([4]; TTM total dose 12.5 mg/kg, haemorrhage/reperfusion) | neurological function in patients who present with neurologic disease (Wilson's disease)
[SH-].[SH-].[S]=[Mo]=[S] [TTM, Tetrathiomolybdate] | 17 | high levels of sulphide in plasma | 2 | dose-dependent increase in plasma sulphide levels | decrease in core temperature | conscious level was maintained | clear drop | clear drop | induced significant hypothermia | ablated the hyperthermic response to endotoxin | dose-dependent inhibition of oxygen consumption | significant improvement in 6 h survival | Core temperature fell | 
ammonium TTM |  |  |  |  |  |  |  |  |  |  |  |  |  | preserves neurological function
